Source: ChEMBL document CHEMBL1137253, “Novel C-3 N-urea, amide, and carbamate dihydroindazolo[5,4-a]pyrrolo[3,4-c]carbazole analogs as potent TIE-2 and VEGF-R2 dual inhibitors” (Bioorg Med Chem Lett, 2006)

Tests used:
Angiopoietin-1 receptor = Angiopoietin-1 receptor (Homo sapiens, UniProt Q02763)
[1] = AUC (0-t) in rat at 5 mg/kg, po; type: ADME, organism-based; set-up: dose 5 mg/kg, route oral; conditions: plasma
[2] = AUC (0-t) in rat at 1 mg/kg, iv; type: ADME, organism-based; set-up: dose 1 mg/kg, route intravenous; conditions: plasma
[3] = AUC (0-infinity) in rat at 5 mg/kg, po; type: ADME, organism-based; set-up: time infinity, dose 5 mg/kg, route oral; conditions: plasma
[4] = Volume of distribution in rat at 1 mg/kg, iv; type: ADME, organism-based; set-up: dose 1 mg/kg, route intravenous; conditions: in vivo, read-out: Vdss
[5] = Clearance in rat at 1 mg/kg, iv; type: ADME, organism-based; set-up: dose 1 mg/kg, route intravenous; conditions: in vivo
[6] = Half life in rat at 1 mg/kg, iv; type: ADME, organism-based; set-up: dose 1 mg/kg, route intravenous; conditions: in vivo
[7] = Tmax in rat at 5 mg/kg, po; type: ADME, organism-based; set-up: dose 5 mg/kg, route oral; conditions: in vivo
Mus musculus = species: Mus musculus; assay: Antitumor activity against murine SVR cells in nude mice; type: functional
[8] = Cmax in rat at 5 mg/kg, po; type: ADME, organism-based; set-up: dose 5 mg/kg, route oral; conditions: in vivo
[9] = AUC (0-infinity) in rat at 1 mg/kg, iv; type: ADME, organism-based; set-up: time infinity, dose 1 mg/kg, route intravenous; conditions: plasma
Rattus norvegicus = assay: Toxicity assessed by gastrointestinal hemorrhage in rat at 10 mg/kg; type: organism-based; set-up: dose 10 mg/kg; conditions: in vivo

Sequence of Angiopoietin-1 receptor (Q02763 whole entry): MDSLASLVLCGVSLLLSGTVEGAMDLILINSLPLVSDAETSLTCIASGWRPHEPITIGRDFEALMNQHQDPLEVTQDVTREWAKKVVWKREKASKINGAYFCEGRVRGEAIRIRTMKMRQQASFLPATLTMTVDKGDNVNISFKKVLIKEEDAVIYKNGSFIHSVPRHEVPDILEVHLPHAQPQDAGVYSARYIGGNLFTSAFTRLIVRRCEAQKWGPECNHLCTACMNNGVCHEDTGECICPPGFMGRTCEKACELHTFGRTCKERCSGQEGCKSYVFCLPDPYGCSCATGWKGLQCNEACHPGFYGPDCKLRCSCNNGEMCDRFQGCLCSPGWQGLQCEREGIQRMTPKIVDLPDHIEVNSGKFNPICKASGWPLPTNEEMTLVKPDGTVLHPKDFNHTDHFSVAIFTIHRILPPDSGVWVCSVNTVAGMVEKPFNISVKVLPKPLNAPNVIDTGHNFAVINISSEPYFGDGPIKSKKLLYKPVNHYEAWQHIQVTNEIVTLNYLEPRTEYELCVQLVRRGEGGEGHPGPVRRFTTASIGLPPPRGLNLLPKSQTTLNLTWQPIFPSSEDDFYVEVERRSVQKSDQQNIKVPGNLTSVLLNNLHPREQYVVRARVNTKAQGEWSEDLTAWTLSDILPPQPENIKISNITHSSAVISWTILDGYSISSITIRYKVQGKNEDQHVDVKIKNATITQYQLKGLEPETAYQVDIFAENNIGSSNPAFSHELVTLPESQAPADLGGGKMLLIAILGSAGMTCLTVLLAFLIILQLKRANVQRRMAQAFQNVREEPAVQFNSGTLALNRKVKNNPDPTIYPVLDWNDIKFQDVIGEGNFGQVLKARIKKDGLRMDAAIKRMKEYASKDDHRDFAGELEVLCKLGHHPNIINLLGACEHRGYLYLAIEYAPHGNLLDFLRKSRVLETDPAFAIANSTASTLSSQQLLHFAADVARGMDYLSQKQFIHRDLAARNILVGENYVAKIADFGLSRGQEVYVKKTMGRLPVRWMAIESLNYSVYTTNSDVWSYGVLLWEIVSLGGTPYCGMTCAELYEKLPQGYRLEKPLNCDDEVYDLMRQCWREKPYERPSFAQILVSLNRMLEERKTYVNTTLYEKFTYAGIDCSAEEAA

SMILES	IC50 (Angiopoietin-1 receptor) [nM]	further results
CC(C)Cn1c2ccc(N)cc2c2c3c(c4c(c21)CCc1nn(C)cc1-4)C(=O)NC3	48	
CCCn1c2ccc(NC(=O)Nc3ccccc3F)cc2c2c3c(c4c(c21)CCc1nn(C)cc1-4)C(=O)NC3	2	
CCCn1c2ccc(NC(=O)N(C)c3ccccc3)cc2c2c3c(c4c(c21)CCc1nn(C)cc1-4)C(=O)NC3	2	
CCCCn1c2ccc(N)cc2c2c3c(c4c(c21)CCc1nn(C)cc1-4)C(=O)NC3	230	
CCCn1c2ccc(NC(=O)Nc3ccccc3Br)cc2c2c3c(c4c(c21)CCc1nn(C)cc1-4)C(=O)NC3	4	
CCCn1c2ccc(NC(=O)Nc3ccc(N(C)C)cc3)cc2c2c3c(c4c(c21)CCc1nn(C)cc1-4)C(=O)NC3	6	
CCCn1c2ccc(NC(=O)c3cccs3)cc2c2c3c(c4c(c21)CCc1nn(C)cc1-4)C(=O)NC3	12	
CC(C)Cn1c2ccc(NC(=O)c3ccco3)cc2c2c3c(c4c(c21)CCc1nn(C)cc1-4)C(=O)NC3	20	
CCCn1c2ccc(NC(=O)Nc3ccc(C)cc3)cc2c2c3c(c4c(c21)CC(C=N)=CC4)C(=O)NC3	3	
CC(C)Cn1c2ccc(NC(=O)c3cccs3)cc2c2c3c(c4c(c21)CCc1nn(C)cc1-4)C(=O)NC3	10	
CCCn1c2ccc(NC(=O)c3ccco3)cc2c2c3c(c4c(c21)CCc1nn(C)cc1-4)C(=O)NC3	29	
CCCn1c2ccc(NC(=O)Nc3ccc(F)cc3)cc2c2c3c(c4c(c21)CCc1nn(C)cc1-4)C(=O)NC3	2	
CCCn1c2ccc(NC(=O)Nc3ccc(Cl)cc3)cc2c2c3c(c4c(c21)CCc1nn(C)cc1-4)C(=O)NC3	6	
CCCn1c2ccc(NC(=O)Nc3ccc(SC)cc3)cc2c2c3c(c4c(c21)CCc1nn(C)cc1-4)C(=O)NC3	3	
CCCn1c2ccc(NC(=O)Nc3cc(C)ccc3F)cc2c2c3c(c4c(c21)CCc1nn(C)cc1-4)C(=O)NC3	1	
COc1ccccc1NC(=O)Nc1ccc2c(c1)c1c3c(c4c(c1n2CC(C)C)CCc1nn(C)cc1-4)C(=O)NC3	8	

SMILES	IC50 (Angiopoietin-1 receptor) [nM]	further results
CCCCn1c2ccc(NC(=O)Nc3ccc(OC)cc3)cc2c2c3c(c4c(c21)CCc1nn(C)cc1-4)C(=O)NC3	7	
CCCn1c2ccc(NC(=O)Nc3cccc(F)c3)cc2c2c3c(c4c(c21)CCc1nn(C)cc1-4)C(=O)NC3	2	
COc1cccc(NC(=O)Nc2ccc3c(c2)c2c4c(c5c(c2n3CC(C)C)CCc2nn(C)cc2-5)C(=O)NC4)c1	4	
CCCn1c2ccc(NC(=O)Oc3ccc(OC)cc3)cc2c2c3c(c4c(c21)CCc1nn(C)cc1-4)C(=O)NC3	5	
CCCn1c2ccc(NC(=O)OCC)cc2c2c3c(c4c(c21)CCc1nn(C)cc1-4)C(=O)NC3	18	
CCCn1c2ccc(NC(=O)Nc3ccccc3)cc2c2c3c(c4c(c21)CCc1nn(C)cc1-4)C(=O)NC3	5	
CCCn1c2ccc(N)cc2c2c3c(c4c(c21)CCc1nn(C)cc1-4)C(=O)NC3	36	
CCCn1c2ccc(NC(=O)Nc3cc(C(F)(F)F)ccc3F)cc2c2c3c(c4c(c21)CCc1nn(C)cc1-4)C(=O)NC3	4	
CCCOC(=O)Nc1ccc2c(c1)c1c3c(c4c(c1n2CCC)CCc1nn(C)cc1-4)C(=O)NC3	7	
CCCn1c2ccc(NC(=O)OC(C)C)cc2c2c3c(c4c(c21)CCc1nn(C)cc1-4)C(=O)NC3	11	AUC(0-t) [1]: 2.42 µg·h/mL; AUC(0-t) [2]: 1.42 µg·h/mL; AUC(0-inf) [3]: 3.77 µg·h/mL; Vd [4]: 2.34 L/kg; clearance [5]: 0.63 L/h/kg; half-life [6]: 2.84 h; Tmax [7]: 4 h; Activity (Mus musculus): 62%; Cmax [8]: 0.552 µg/mL; AUC(0-inf) [9]: 1.71 µg·h/mL; Activity (Rattus norvegicus): Toxic
CCCn1c2ccc(NC(=O)Nc3ccc(OC)cc3)cc2c2c3c(c4c(c21)CCc1nn(C)cc1-4)C(=O)NC3	2	
CCCn1c2ccc(NC(=O)Nc3ccccc3Cl)cc2c2c3c(c4c(c21)CCc1nn(C)cc1-4)C(=O)NC3	3	
COc1ccc(NC(=O)Nc2ccc3c(c2)c2c4c(c5c(c2n3CC(C)C)CCc2nn(C)cc2-5)C(=O)NC4)cc1	3	
CCn1c2ccc(NC(=O)Nc3ccc(OC)cc3)cc2c2c3c(c4c(c21)CCc1nn(C)cc1-4)C(=O)NC3	4	
CCCn1c2ccc(NC(=O)Nc3cccs3)cc2c2c3c(c4c(c21)CCc1nn(C)cc1-4)C(=O)NC3	19	
CCCn1c2ccc(NC(=O)Oc3ccc(F)cc3)cc2c2c3c(c4c(c21)CCc1nn(C)cc1-4)C(=O)NC3	11	
